Data published in patent US20200000751A1, “CARBOXYLIC ACIDS FOR TREATING/PREVENTING NASAL CONGESTION” (PROPONENT BIOTECH GMBH, priority 2016, published 2020).

Assay: Stability of test item in solution
Format: physicochemical
Conditions: in Locke-Ringer Solution

Structure (SMILES): CCC(=O)[O-].[Na+] [Sodium propionate]
- Stability of Test Item in Solution: ≥6 months in Locke-Ringer Solution
